The record followed here is patent US20260217688A1, “INHIBITORS OF JAK2” (Llydaw Therapeutics, Inc., priority 2022, published 2026).

For data set [1], the target named is T1, JAK2 JH2 (Homo sapiens, UniProt O60674).
T1 construct: Enzyme: JAK2 JH2, His-Avi-Tag, Biotin-Labeled (BPS Bioscience, Cat #79074) 1 nM; His; purchased BPS Bioscience 79074
Description: JAK2 JH2 TR-FRET Assay. It is filed as binding. Particulars: JAK2 JH2 1 nM, Tracer ZE84-0003 10 nM. The method, then:
Assay Buffer 1×: • 20 mM HEPES pH 7.2-7.4; • 10 mM MgCl2; • 0.015% Brij-35; • 2 mM DTT; • 0.05 mg/ml BSA.
Final assay concentrations: • DMSO: 0.25%; • Streptavidin Tb-cryptate (Cisbio, Cat #610SATLB) 0.2 nM; • Enzyme: JAK2 JH2, His-Avi-Tag, Biotin-Labeled (BPS Bioscience, Cat #79074) 1 nM; • Probe: Tracer ZE84-0003 (ChemRar) 10 nM.
Materials: • Reaction plate: ProxiPlate-384 Plus White Plate (PerkinElmer); • Dilution plate: Diamond Well Plate (Axygen, Cat #P-384-120 SQ-C-S); • Compounds plate: Diamond Well Plate (Axygen, Cat #P-384-120 SQ-C-S).
Assay protocol: • 1. Prepare 400× solutions of compounds in DMSO into Compounds plate; • 2. Prepare Dilution plate: add 39 μL of 1× Assay buffer per well of Dilution plate; • 3. Prepare 2×Tb-cryptate mix in 1× Assay buffer. Add 10 μL of 2×Tb-cryptate mix to K-(Tb-cryptate and Probe without Enzyme) wells and blank (Tb-cryptate without Probe and Enzyme) wells; • 4. Add JAK2 JH2 into the rest of 2×Tb-cryptate mix to make 2×JAK2 JH2+Tb-cryptate mix. Add 10 μL per well into Reaction plate; • 5. Centrifuge plate at 200 g for 1 min; • 6. Dilute 1 μL of 400× compounds in 39 μL 1× Assay buffer in Dilution plate; • 7. Add 2 μL of 10× compounds from Dilution plate to Reaction plate with 10 μL of JAK2 JH2+Tb-cryptate mix; • 8. Centrifuge plate at 200 g for 1 min; • 9. Pre-incubate Reaction plate with compounds 15 min; • 10. Prepare 2.5× Tracer mix; • 11. Add 8 μL of 2.5× Tracer mix into appropriate wells of Reaction plate; • 12. Centrifuge plate at 800 g for 3 min; • 13. Incubate at rt for 15 min; • 14. Measure Fluorescence using Microplate Reader (Ex: TR, Em1/Em2: 482/520). The results of this assay are shown in the Table B. The values of EC50 shown as a letters A-D, where: A≤0.01 μM; 0.01 μM<B≤0.05 μM; 0.05 μM<C≤0.1 μM; D>0.1.
(In TR-FRET formats the signal depends on donor and acceptor labels being close together.)

A short description of data set [2]: Proliferation inhibition assay (CellTiter-Glo), Ba/F3 JAK2 wt. To be noted: mouse, Ba/F3 (JAK2 wt) cells. It is filed as cell-based. Here is the method:
(§1) Ba/F3 (JAK2 wt) (ABM, T3076) cells and Ba/F3 (JAK2 V617F) (WuXi AppTec) cells were grown in RPMI-1640 (Gibco, cat. number 21870) supplemented with 10% FBS (Hyclone Laboratories Inc, Cat #SV30160.03), 1× Antibiotic-antimycotic (Gibco, Cat #15240-062), 2× Sodium pyruvate (Paneco, cat #F023), 2× Essential amino acids (Paneco, cat #F115/100), 1× Non-Essential amino acids (Paneco, cat #F116) at 37° C. in 5% CO2 atmosphere.
(§2) For the proliferation inhibition assay Ba/F3 (JAK2 wt) and Ba/F3 (JAK2 V617F) cells were seeded into a CellBIND® 384-well Flat Clear Bottom Black Polystyrene Microplates (Corning, USA, Cat #3770) at a density of 4000 cells per well in complete culture medium with or without 10 ng/ml rmIL-3 (RD systems, USA, Cat #403-ML-025) using Biomek FX/NX (384) liquid handler, 45 μl of cell suspension in complete culture medium per well. 500× compound's stocks in DMSO (Sigma Cat #D2650) were prepared in compounds plate (Diamond Well Plate, Axigen, Cat #P-384-120 SQ-C-S) applying Biomek 2000. 1 μl of 500× compounds stock was added to 49 μl of complete culture medium into Dilution plate (Diamond Well Plate, Axigen, Cat #P-384-120 SQ-C-S), mixed and then 5 μl of 10× compounds solution was transferred to cells using Biomek FX/NX (384) liquid handler. The centrifugation at 100 g for 1 min at Eppendorf 5810 followed. Final DMSO concentration in assay was 0.2%. All treatments were performed in technical and biological duplicates. Treated cells were incubated for 72 h at 37° C. with 5% CO2.
(§3) After 3 days of incubation, CellTiter-Glo Luminescent Cell Viability Assay (Promega) was performed. 10 μl of CellTiter-Glo (Promega, CAT #G7572) was added to the cells using Biomek FX/NX (384) liquid handler. The assay plate was centrifuged at 100 g for 1 min and luminescence signal was measured using Microplate Reader (CLARIOStar).
(ATP-based viability assays read luminescence as a measure of living cells.)

Data set [3] is described as follows: Proliferation inhibition assay (CellTiter-Glo), Ba/F3 JAK2 V617F. It is filed as cell-based. Particulars: mouse, Ba/F3 (JAK2 V617F) cells; with 10 ng/ml rmIL-3, 72 h; read-out: Ba/F3 JAK2 V617F + IL3, CC50 3 days. Here is the method:
as §1, §2, §3

Data set [4] has as its system Ba/F3 (JAK2 V617F) cells. The description is as above. It is filed as cell-based. Particulars: Mus musculus, BaF3; without IL3, 72 h; read-out: Ba/F3 JAK2 V617F, CC50 3 days. The method, then: as §1, §2, §3
The mark [5] stands for this setting: with 10 ng/ml rmIL-3, 72 h, read-out: Ba/F3 JAK2 wt + IL3, CC50 3 days.
[6] abbreviates: without IL3, 72 h, read-out: Ba/F3 JAK2 wt, CC50 3 days.

Bounds are passed on as bounds.

T1 sequence (O60674 545-809 limits assumed): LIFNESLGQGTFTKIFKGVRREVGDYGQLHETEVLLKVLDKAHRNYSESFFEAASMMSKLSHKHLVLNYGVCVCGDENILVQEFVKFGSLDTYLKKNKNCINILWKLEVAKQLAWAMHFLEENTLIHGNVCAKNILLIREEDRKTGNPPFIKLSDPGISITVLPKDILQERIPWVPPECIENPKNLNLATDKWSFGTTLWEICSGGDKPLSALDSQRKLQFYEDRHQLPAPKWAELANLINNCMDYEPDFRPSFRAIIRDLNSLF

In data set [1], `COc1c(Nc2nc(Nc3cnn(CC4CCCCC4)c3)ncc2C(N)=O)cccc1-c1ncn(C)n1` [Compound 22, 2-[[1-(cyclohexylmethyl)pyrazol-4-yl]amino]-4-[2-methoxy-3-(1-methyl-1,2,4-triazol-3-yl)anilino]pyrimidine-5-carboxamide] showed a concentration for a half-maximal effect (EC50) of 0.01 to 0.05 µM. Also, the CC50 at 72 h in data set [2] (setting [5]) lay in the range of 5 to 10 µM; in data set [2] (setting [6]), 5 to 10 µM; in data set [3], 1 to 5 µM. The CC50 in data set [4] was no more than 0.5 µM.

`COc1c(Nc2nc(Nc3cnn(C)c3)ncc2C(N)=O)cccc1-c1nnc(C)o1` [Compound 3, 4-[2-methoxy-3-(5-methyl-1,3,4-oxadiazol-2-yl)anilino]-2-[(1-methylpyrazol-4-yl)amino]pyrimidine-5-carboxamide]: the 50% effective concentration (EC50) in data set [1] fell in the range of 0.01 to 0.05 µM. Also, the CC50 at 72 h in data set [2] (setting [5]), in data set [2] (setting [6]) and in data set [3] was greater than 10 µM in each case. Further, the CC50 in data set [4] was 5 to 10 µM.

Regarding `CCCCCCn1cc(Nc2ncc(C(N)=O)c(Nc3cccc(-c4ncn(C)n4)c3OC)n2)cn1` [Compound 26, 2-[(1-hexylpyrazol-4-yl)amino]-4-[2-methoxy-3-(1-methyl-1,2,4-triazol-3-yl)anilino]pyrimidine-5-carboxamide], in data set [1], the 50% effective concentration (EC50) is 0.01 to 0.05 µM. For the same compound, the CC50 at 72 h is 5 to 10 µM in data set [2] (setting [5]), 5 to 10 µM in data set [2] (setting [6]) and 0.5 to 1 µM in data set [3]. In data set [4], the CC50 is no more than 0.5 µM.

`COc1c(Nc2nc(Nc3c(C)nn(C)c3C)ncc2C(N)=O)cccc1-c1ncn(C)n1` [Compound 17, 4-[2-methoxy-3-(1-methyl-1,2,4-triazol-3-yl)anilino]-2-[(1,3,5-trimethylpyrazol-4-yl)amino]pyrimidine-5-carboxamide] came in with an EC50 in data set [1] greater than 0.1 µM. Moreover, the CC50 at 72 h in data set [2] (setting [5]), in data set [2] (setting [6]) and in data set [3] was greater than 10 µM in each case. For the same compound, the CC50 in data set [4] is greater than 10 µM.

On to `COc1c(Nc2nc(Nc3cnn(C(C)C)c3)ncc2C(N)=O)cccc1-c1nc2ccccc2o1` [Compound 16, 4-[3-(1,3-benzoxazol-2-yl)-2-methoxy-anilino]-2-[(1-isopropylpyrazol-4-yl)amino]pyrimidine-5-carboxamide], for which the half-maximal effective concentration (EC50) in data set [1] fell in the range of 0.01 to 0.05 µM. In addition, the CC50 at 72 h in data set [2] (setting [5]) is 5 to 10 µM; in data set [2] (setting [6]), greater than 10 µM; in data set [3], 0.5 to 1 µM. The CC50 in data set [4] was no more than 0.5 µM.

The compound `COc1c(Nc2nc(Nc3cnn(C4CCNCC4)c3)ncc2C(N)=O)cccc1-c1nc2ccccc2o1` [Compound 8, 4-[3-(1,3-benzoxazol-2-yl)-2-methoxy-anilino]-2-[[1-(4-piperidyl)pyrazol-4-yl]amino]pyrimidine-5-carboxamide] returned an EC50 in data set [1] of no more than 0.01 µM. Also, the CC50 at 72 h in data set [2] (setting [5]) is greater than 10 µM; in data set [2] (setting [6]) it was greater than 10 µM; in data set [3] it was 5 to 10 µM. Moreover, the CC50 in data set [4] lay within 1 to 5 µM.

Compound `COc1c(Nc2nc(Nc3cnn(CCN(CC(C)C)CC(C)C)c3)ncc2C(N)=O)cccc1-c1ncn(C)n1` [Compound 29, 2-(1-(2-(Diisobutylamino)ethyl)-1H-pyrazol-4-ylamino)-4-(2-methoxy-3-(1-methyl-1H-1,2,4-triazol-3-yl)phenylamino)pyrimidine-5-carboxamide] displayed an EC50 in data set [1] greater than 0.1 µM. Further, the CC50 at 72 h in data set [2] (setting [5]) is 5 to 10 µM; in data set [2] (setting [6]) it was 1 to 5 µM; in data set [3], 1 to 5 µM. Also, in data set [4], the CC50 was no more than 0.5 µM.

In turn, `COc1c(Nc2nc(Nc3cnn(C4CCNCC4)c3)ncc2C(N)=O)cccc1-c1ncn(C)n1` [Compound 7, 4-((2-Methoxy-3-(1-methyl-1H-1,2,4-triazol-3-yl)phenyl)amino)-2-((1-(piperidin-4-yl)-1H-pyrazol-4-yl)amino)pyrimidine-5-carboxamide 2,2,2-trifluoroacetate] gave an EC50 in data set [1] of 0.01 to 0.05 µM. Moreover, the CC50 at 72 h in data set [2] (setting [5]), in data set [2] (setting [6]) and in data set [3] was greater than 10 µM in each case. Also, the CC50 in data set [4] lay in the range of 1 to 5 µM.

Regarding `COc1c(Nc2nc(Nc3cnn(C(C)C)c3)ncc2C(N)=O)cccc1-c1ncn(C)n1` [Compound 4, 2-((1-Isopropyl-1H-pyrazol-4-yl)amino)-4-((2-methoxy-3-(1-methyl-1H-1,2,4-triazol-3-yl)phenyl)amino)pyrimidine-5-carboxamide], the EC50 in data set [1] is no more than 0.01 µM. Moreover, the results for the CC50 at 72 h in data set [2] (setting [5]), in data set [2] (setting [6]) and in data set [3] were 5 to 10 µM, 5 to 10 µM and 1 to 5 µM, respectively. The CC50 in data set [4] was no more than 0.5 µM.

In the case of `COc1c(Nc2nc(Nc3cnn(-c4ccccc4)c3)ncc2C(N)=O)cccc1-c1ncn(C)n1` [Compound 6, 4-((2-Methoxy-3-(1-methyl-1H-1,2,4-triazol-3-yl)phenyl)amino)-2-((1-phenyl-1H-pyrazol-4-yl)amino)pyrimidine-5-carboxamide], the EC50 in data set [1] lay within 0.01 to 0.05 µM. In addition, the CC50 at 72 h in data set [2] (setting [5]) is greater than 10 µM; in data set [2] (setting [6]) it was greater than 10 µM; in data set [3], no more than 0.5 µM. Further, the CC50 in data set [4] is no more than 0.5 µM.

`COc1c(Nc2nc(Nc3cnn(C)c3)ncc2C(N)=O)cccc1-c1nc2ccccc2o1` [Compound 12, 4-[3-(1,3-benzoxazol-2-yl)-2-methoxy-anilino]-2-[(1-methylpyrazol-4-yl)amino]pyrimidine-5-carboxamide]: the EC50 in data set [1] was in the range of 0.01 to 0.05 µM. Besides, the results for the CC50 at 72 h in data set [2] (setting [5]), in data set [2] (setting [6]) and in data set [3] were greater than 10 µM, greater than 10 µM and 1 to 5 µM, respectively. Moreover, in data set [4], the CC50 is no more than 0.5 µM.

For `COc1c(Nc2nc(Nc3cnn(C)c3)ncc2C(N)=O)cccc1-c1ccccn1` [Compound 2, 4-[2-methoxy-3-(2-pyridyl)anilino]-2-[(1-methylpyrazol-4-yl)amino]pyrimidine-5-carboxamide], the EC50 in data set [1] was 0.05 to 0.1 µM. The CC50 at 72 h in data set [2] (setting [5]) is greater than 10 µM; in data set [2] (setting [6]), greater than 10 µM; in data set [3], 1 to 5 µM. In data set [4], the CC50 was no more than 0.5 µM.

Turning to `CCn1nc(C)c(Nc2ncc(C(N)=O)c(Nc3cccc(-c4ncn(C)n4)c3OC)n2)c1C` [Compound 18, 2-[(1-ethyl-3,5-dimethyl-pyrazol-4-yl)amino]-4-[2-methoxy-3-(1-methyl-1,2,4-triazol-3-yl)anilino]pyrimidine-5-carboxamide], the half-maximal effective concentration (EC50) in data set [1] is greater than 0.1 µM. For the same compound, the CC50 at 72 h in data set [2] (setting [5]), in data set [2] (setting [6]) and in data set [3] was greater than 10 µM in each case. Besides, the CC50 in data set [4] was 5 to 10 µM.

The term EC50 denotes the midpoint of the concentration-response curve. Low readings indicate greater potency, high ones weaker potency.
